Measured values: paper PMC11428279, “Exploring Structure–Activity Relationships and Modes of Action of Laterocidine” (ACS Central Science, 2024)
Converted amounts (≈) assume the structure as drawn. Read-outs that look alike come from different tables or passages of the source. Bridge positions count the residues as written; N and C are the ends. Square brackets hold non-standard residues; d marks the D form. Peptide text beside a SMILES is read from it. * marks the point of attachment. Octanoyl(7-Me) = CC(C)CCCCCC(=O)*; dOrn = NCCC[C@@H](N)C(=O)O; Orn = NCCC[C@H](N)C(=O)O

Key:
[1] = system: female Swiss mice; experiment: Acute toxicity in mice (maximum tolerable dose); assay type: in vivo; conditions: intravenous bolus via lateral tail vein, free base, N = 3
Protocol: (§1) All animal studies were approved by the Monash University Animal Ethics Committee and involved female Swiss mice (22–28 g, 7-week-old) housed in microisolators within a PC2 animal laboratory. Mice were kept under a 12/12 h dark/light cycle at 20–24 °C and 50–70% ambient humidity.
For the acute toxicity studies, peptide 11 and laterocidine solutions were prepared in 0.9% saline and stored at 4 °C before use. All mice were administered an intravenous bolus of one peptide (mg/kg free base) via a lateral tail vein (≤0.1 mL). Following the injection, mice were released back into their respective home cages and individually monitored for 24 h for signs of clinical toxicity. Mice displaying any signs of toxicity were humanely euthanized according to the recommended Euthanasia/Humane Experimental End point Criteria.

[2] = system: A. baumannii 5075D; assay type: cell-based; conditions: lacks lipid A in the outer membrane
[3] = system: A. baumannii 5075R; assay type: cell-based; conditions: lipid A modified with phosphoethanolamine
[4] = system: P. aeruginosa; assay type: cell-based
Protocol: (§2) MICs for laterocidine and its various analogues were determined by broth microdilution[49] for the following polymyxin-susceptible ATCC and clinical isolates: P. aeruginosa FADDI-PA022, FADDI-PA001, FADDI-PA025, FADDI-PA070, FADDI-PA060; A. baumannii FADDI-AB134, FADDI-AB034, FADDI-AB030, FADDI-AB174, FADDI-AB241; K. pneumoniae FADDI-KP032, FADDI-KP022, BM1, FADDI-KP065, FADDI-KP064, FADDI-KP003; and E. cloacae FADDI-EC001, FADDI-EC003, and FADDI-EC006. Experiments were performed with cation-adjusted Mueller–Hinton broth (CAMHB) in 96-well polystyrene microtiter plates. Wells were inoculated with 100 μL of bacterial suspension prepared in CAMHB (containing ∼10^6 CFU/mL) and 100 μL of CAMHB containing increasing concentrations of polymyxins (0–32 μg/mL). MIC measurements were performed in duplicate, with the MIC being the lowest concentration at which visible growth was inhibited following 18–20 h of incubation at 37 °C. Bacterial killing kinetics was investigated over 24 h as described previously.[50]

[5] = system: E. cloacae; assay type: cell-based
Protocol: as §2

[6] = system: K. pneumoniae; assay type: cell-based
Protocol: as §2

[7] = system: Gram-negative strains of P. aeruginosa, A. baumannii, K. pneumoniae, and E. cloacae; assay type: cell-based
Protocol: as §2

[8] = system: P. aeruginosa PAO1; experiment: MIC; assay type: cell-based; conditions: polymyxin-susceptible reference strain
[9] = system: P. aeruginosa PAO1; experiment: Flow cytometry of bacterial membrane integrity, respiration, polarity and oxidative stress; assay type: cell-based; conditions: 1 h exposure
Protocol: The live cell impermeant fluorophore propidium iodide (PI) (Sigma-Aldrich, Castle Hill, NSW, Australia) was used to assess loss of membrane integrity (Ex/Em 488/660–690 nm) and the redox probe 5-cyano-2,3-ditolyl tetrazolium chloride (CTC) (Sigma-Aldrich, Castle Hill, NSW, Australia) used to assess loss of cellular respiration (Ex/Em 450/630 nm). […] Intracellular oxidative stress was measured using CR-G (CellROX Green) (Sigma-Aldrich, Castle Hill, NSW, Australia, Ex/Em 488/660–690 nm).[58] Appropriately diluted samples (600 μL) were stained separately with 12.5 μM PI, 2.5 mM CTC, 6 μM DiBAC, and 2.5 μM CR-G. Samples stained with both PI and DiBAC were incubated for 2 min and immediately analyzed. Samples stained with both CTC and CR-G were incubated for 45 min at RTP, and excess dye was pelleted out prior to analysis. Fluorescence intensity data were analyzed and log transformed using the NovoExpress software (V2.1, ACEA Biosciences, USA).[34]

[10] = system: E. coli O111:B4 LPS; experiment: 1H NMR titration with LPS; assay type: binding; conditions: 23 °C, 50 mM acetate buffer pH 4.5, 1.5 mM peptide, 16 μL of 10 mg/mL LPS
Protocol: NMR samples contained 0.75–2.0 mM laterocidine in a 50 mM acetate (d6) NMR buffer (90% H2O:10% D2O, pH 4.5 or ∼100% D2O, pH 4.5). Experiments were recorded on a Bruker 600 MHz NMR spectrometer equipped with a cryoprobe and Z axis gradient. 2D ^13C HSQC and 2D ^13C–^1H H2BC were recorded using gradients for coherence selection and sensitivity enhancement and additional presaturation of the solvent signal when required. 1D ^1H, 2D ^1H–^1H NOESY (with mixing times 35–200 ms), and 2D ^1H–^1H TOCSY experiments (mixing time 70 ms) used an excitation sculpting, DPFGSE sequence for water suppression.[51] Typical acquisition times for the 2D ^1H–^1H NOESY experiments were 524 ms (t2) and 40 ms (t1). For transferred LPS experiments, NMR data was recorded at 23–25 °C which was optimized for the least amide peak overlap. 2D ^1H–^1H NOESY spectra for the free peptide were also recorded at 23 °C. Spectra were processed with nmrPipe[52] or Topspin and analyzed with Xeasy[53] or NMRFAM Sparky.[54] Backbone assignments were made using the standard sequential NOE based assignment strategy using 2D ^1H–^1H TOCSY and 2D ^1H–^1H NOESY data. Side chain assignments were further aided using the 2D ^13C–^1H H2BC experiment. 1D ^1H STD experiments were recorded using excitation sculpting for water suppression. […]

[11] = system: P. aeruginosa PAO1R; experiment: MIC; assay type: cell-based; conditions: polymyxin-resistant paired strain of PAO1
[12] = system: P. aeruginosa PAO1; experiment: Static time-kill study; assay type: cell-based
Protocol: as §2

[13] = system: P. aeruginosa PAO1R; experiment: Static time-kill study; assay type: cell-based; conditions: 8 × MIC, over 24 h
Protocol: as §2

[14] = system: A. baumannii 5075 (wild type); experiment: MIC; assay type: cell-based
[15] = system: P. aeruginosa FADDI-PA070; experiment: Neutropenic murine bloodstream infection model; assay type: in vivo, P. aeruginosa in mice; conditions: 8 mg/kg iv (free base) 2 h postinoculation, neutropenic mice, 4 h time point, N = 3, mean
Protocol: as §1
The neutropenic bloodstream infection model was undertaken as previously described.[39] Mice were rendered neutropenic through intraperitoneal injections of cyclophosphamide administered 4 days (150 mg/kg) and 1 day (100 mg/kg) prior to inoculation. Bloodstream infection was established by administering a 50 μL bolus of early log-phase bacterial suspension (4 × 10^8 CFU/mL). Laterocidine, peptide 11, and polymyxin B solutions were prepared in sterile saline at a concentration of 1 mg/mL (free base). Two hours postinoculation, mice (n = 3) were injected intravenously with either polymyxin B at 4 mg/kg (free base), peptide 11 at 8 mg/kg (free base), laterocidine at 8 mg/kg (free base), or saline (control mice). Blood was collected immediately after (0 h) and 4 h after drug administration, serially diluted with sterile saline, and appropriately diluted samples manually plated on nutrient agar prior to overnight incubation at 37 °C. Colonies were counted manually and the bacterial load (log10 CFU/mL) in the blood of each mouse calculated. In vivo efficacy was calculated as the difference between the log10 CFU/mL blood values of treated and control mice 4 h postdosing (Δlog10 CFU/mL blood = log10 [treated] CFU/mL blood–log10[control] CFU/mL blood).[54]

[16] = listed as Laterocidine (peptide 1)

CC[C@H](C)[C@@H]1NC(=O)[C@@H](NC(=O)[C@H](Cc2c[nH]c3ccccc23)NC(=O)[C@@H](CCCN)NC(=O)CNC(=O)[C@H](CCCN)NC(=O)[C@@H](CCCN)NC(=O)[C@@H](Cc2c[nH]c3ccccc23)NC(=O)[C@@H](Cc2ccc(O)cc2)NC(=O)[C@@H](CO)NC(=O)CCCCCC(C)C)[C@@H](C)OC(=O)CNC(=O)CNC(=O)[C@H](CC(N)=O)NC1=O [Laterocidine] ({Octanoyl(7-Me)}-[dS][dY][dW][dOrn][Orn]G[dOrn]WTINGG; ester 9-C)
maximum tolerable dose (MTD), Iv (Bolus) [1]: 13.2 mg/kg
MIC, A. baumannii 5075 D [2]: 32 µg/mL (≈ 19.9 µM)
MIC, A. baumannii 5075 D [2, 16]: > 32 µg/mL
MIC, A. baumannii 5075 R [3]: 32 µg/mL (≈ 19.9 µM)
MIC, A. baumannii 5075 R [3, 16]: > 32 µg/mL
MICs against P. aeruginosa (range over strains) [4]: 4 to 8 µg/mL
MICs against E. cloacae (range over strains) [5]: 1 to 2 µg/mL
MICs against K. pneumoniae (range over strains) [6]: 1 to 4 µg/mL
MICs against the MDR strains (range) [7]: 1 to 16 µg/mL
MIC, P. aeruginosa PAO1 [8]: 8 µg/mL (≈ 4.98 µM)
membrane integrity (propidium iodide fluorescence) ([9]; 1 × MIC (2 μg/mL)): no loss of membrane permeability
metabolic activity (CTC fluorescence) ([9]; 1 × MIC (2 μg/mL)): unaffected
intracellular oxidative stress (CellROX Green) ([9]; 1 × and 8 × MIC): increase at both 1 × and 8 × MIC
membrane potential (DiBAC fluorescence) ([9]; 1 × and 8 × MIC): extensive loss of membrane potential at each concentration
membrane integrity (propidium iodide fluorescence) ([9]; 8 × MIC (16 μg/mL)): substantial increase in permeability
metabolic activity (CTC fluorescence) ([9]; 8 × MIC (16 μg/mL)): markedly reduced
binding affinity to LPS (line broadening in 1H NMR titration) [10]: weak to moderate binding affinity
MIC, P. aeruginosa PAO1R [11]: 8 µg/mL (≈ 4.98 µM)
regrowth at 24 h, P. aeruginosa PAO1 ([12]; 4 × MIC, 24 h): ~2 log 10 CFU/mL
time-kill outcome against P. aeruginosa PAO1 ([12]; 8 × MIC, over 24 h): bacterial eradication was achieved at 24 h
time-kill outcome against P. aeruginosa PAO1R [13]: substantial regrowth occurring at all concentrations
MIC, A. baumannii 5075 S [14]: 8 µg/mL (≈ 4.98 µM)
Bacteria load in blood ([15]; listed as Peptide 1): 16.93%
Bacteria load in blood ([15]; listed as peptide 1): 16.9%
